Results: EP0168309A1, “Isoxazoloquinolinone derivatives, process and intermediates for their preparation, use as medicaments and compositions containing them” (ROUSSEL-UCLAF, priority 1984, dated 1986)
pIC50: −log10 of the molar value.

Key:
souris = assay: Acute toxicity, oral administration in mice (DL0); format: in vivo; settings: maximal dose causing no mortality in 8 days, mouse
Source text: On a évalué les doses létales DLO des différents composés testés après administration par voie orale chez la souris.
On appelle DLO la dose maximale ne provoquant aucune mortalité en 8 jours.

[1] = biological target: récepteurs des benzodiazépines; assay: Affinity for benzodiazepine receptors (3H diazepam binding, rat cortex membranes); set-up: species or system rats; settings: concentration inhibiting 50 % of specific binding of 3H diazepam (10^-9M), 30 minutes at 0°C, read-out: C. I. 50 (the source's name)
Protocol: La technique est inspirée de celle de Möhler et Okada : Science, Vol 198 p.849-851 (1977).
On homogénéise au vingtième (poids/volume) dans le sucrose 0,32 M, les cortex prélevés sur des cerveaux de rats mâles pesant 150 g en moyenne. Après centrifugation de l'homogénat à 1000 g pendant 10 minutes à 0°C, le surnageant est centrifugé à 30 000 g pendant 20 minutes à 4°C. Le culot est mis en suspension dans 20 volumes de tampon Tris HCl 50mM pH 7,4 et centrigué à 30 000 g pendant 20 minutes à 4°C. Le nouveau culot obtenu est mis en suspension dans 50 ml de tampon Krebs Tris HCl pH 7,4.
On fait ensuite incuber pendant 30 minutes à 0°C, 2 ml de suspension en présence de 3H diazepam à la concentration 10^-9M : • i) seule, • ii) avec des concentrations croissantes du produit à tester ou, • iii) pour déterminer la fixation non spécifique, avec du diazepam non radioactif à la concentration 10^-6M.
Les suspensions incubées sont filtrées sur Whatman GF/C et les filtres sont lavés par deux fois 5 ml de tampon Krebs Tris HCl pH 7,4 à 0°C.
La radioactivité des filtres est mesurées par scintillation liquide.
L'activité du produit est exprimée en C. I. 50 : concentration inhibant 50 % de la liaison spécifique de ^3H diazepam.

[2] = test system: taux sérique de corticostérone; assay: Action on serum corticosterone level after noise stress; format: in vivo; settings: Rattus norvegicus; dose reducing by 50% the increase of serum corticosterone; oral route, 1 hour before stress; rats; read-out: DE50 (the source's name)
Source text: Des lots de 5 rats sont constitués la veille de l'essai et placés dans un pièce au calme. Les composés sont administrés par voie orale le lendemain entre 8 et 9 heures du matin. Une heure après, le stress est appliqué : il consiste à changer les animaux de cage, à les placer dans une pièce où un poste de radio fonctionne bruyamment (90 décibels), puis 1/2 heure plus tard, à leur faire une piqûre intrapéritonéale sans injection. Dix minutes après celle-ci, les rats sont anesthésiés a l'halothane et des échantillons de sang sont prélevés par décapitation. Les taux de corticostérone sérique sont alors déterminés.
Les résultats sont exprimés en DE50, c'est-à-dire en dose de composé testé qui réduit de 50% l'augmentation du taux de corticostérone sérique chez les animaux traités par rapport aux animaux témoins.

Row | SMILES | DL0 (souris) [mg/kg] | pIC50 [1] | ED50 [2] [mg/kg]
1 | O=c1c2cnc3ccccc3c2on1-c1ccccc1 [Exemple 1, 2-phényl isoxazolo (4,5-c) quinoléin-3 (2H) one] | ≥ 400 | 6.92 | 
2 | O=c1c2cnc3ccc(F)cc3c2on1-c1ccccc1 [Exemple 2, 8-fluoro 2-phénylisoxazolo (4,5-c) quinoléin-3-(2H)-one] | ≥ 400 | 6.40 | < 50
3 | COc1ccc2c(c1)ncc1c(=O)n(-c3ccccc3)oc12 [Exemple 3, 7-méthoxy 2-phénylisoxazolo (4,5-c) quinoléin-3-(2H)-one] | ≥ 200 |  | 
4 | COc1ccc2ncc3c(=O)n(-c4ccccc4)oc3c2c1 [Exemple 4, 8-méthoxy 2-phényl isoxazolo (4,5-c) quinoléin-3-(2H)-one] | 200 | 5.61 | < 100
5 | O=c1c2cnc3ccc(C(F)(F)F)cc3c2on1-c1ccccc1 [Exemple 5, 8-trifluorométhyl 2-phényl isoxazolo (4,5-c) quinoléin-3-(2H)-one] | ≥ 200 |  | 
6 | O=c1c2cnc3ccc(Cl)cc3c2on1-c1ccccc1 [Exemple 7, 8-chloro 2-phényl isoxazolo (4,5-c) quinoléin-3-(2H)-one] | ≥ 100 |  | 
